Reference: patent US20090069320A1, “Substituted 4-Amino-Quinazoline Compounds with Metabotropic Glutamate Receptor Regulating Activity and Uses Thereof” (Gruenenthal GmbH, priority 2006, published 2009)
Counter-ions that a name gives are not always drawn.

Target: T1, mGluR5 receptor (Sus scrofa, UniProt I3LUI7)
T1 construct: 450 μg of protein from brain homogenate with 5 nM ^3[H]-MPEP; from tissue; host or cells: pig brain halves without medulla, cerebellum and pons
Test: [3H]-MPEP mGluR5 receptor binding assay (pig brain homogenate)
Conditions: 5 nM [3H]-MPEP; for inhibition at 10 µM / % Inhibition of mGluR5 Receptor (pig) [^3H]-MPEP Bond at 10 μM: 10 μM compound; for inhibition at 10 µM: read-out: % Inhibition of mGluR5 Receptor (pig) [^3H]-MPEP Bond at 10 μM; for IC50: read-out: IC50 mGluR5 Receptor (pig) [^3H]-MPEP Bond
Method in brief: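 Radioligand displacement of 5 nM [3H]-MPEP from pig brain homogenate (450 μg protein; medulla, cerebellum and pons removed) in 20 mM Hepes pH 8.0. Compounds were tested at 10 μM, incubated 60 min at room temperature, then filtered and counted by scintillation. Non-specific binding was defined with 10 μM MPEP.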

T1 sequence (I3LUI7 19-1212): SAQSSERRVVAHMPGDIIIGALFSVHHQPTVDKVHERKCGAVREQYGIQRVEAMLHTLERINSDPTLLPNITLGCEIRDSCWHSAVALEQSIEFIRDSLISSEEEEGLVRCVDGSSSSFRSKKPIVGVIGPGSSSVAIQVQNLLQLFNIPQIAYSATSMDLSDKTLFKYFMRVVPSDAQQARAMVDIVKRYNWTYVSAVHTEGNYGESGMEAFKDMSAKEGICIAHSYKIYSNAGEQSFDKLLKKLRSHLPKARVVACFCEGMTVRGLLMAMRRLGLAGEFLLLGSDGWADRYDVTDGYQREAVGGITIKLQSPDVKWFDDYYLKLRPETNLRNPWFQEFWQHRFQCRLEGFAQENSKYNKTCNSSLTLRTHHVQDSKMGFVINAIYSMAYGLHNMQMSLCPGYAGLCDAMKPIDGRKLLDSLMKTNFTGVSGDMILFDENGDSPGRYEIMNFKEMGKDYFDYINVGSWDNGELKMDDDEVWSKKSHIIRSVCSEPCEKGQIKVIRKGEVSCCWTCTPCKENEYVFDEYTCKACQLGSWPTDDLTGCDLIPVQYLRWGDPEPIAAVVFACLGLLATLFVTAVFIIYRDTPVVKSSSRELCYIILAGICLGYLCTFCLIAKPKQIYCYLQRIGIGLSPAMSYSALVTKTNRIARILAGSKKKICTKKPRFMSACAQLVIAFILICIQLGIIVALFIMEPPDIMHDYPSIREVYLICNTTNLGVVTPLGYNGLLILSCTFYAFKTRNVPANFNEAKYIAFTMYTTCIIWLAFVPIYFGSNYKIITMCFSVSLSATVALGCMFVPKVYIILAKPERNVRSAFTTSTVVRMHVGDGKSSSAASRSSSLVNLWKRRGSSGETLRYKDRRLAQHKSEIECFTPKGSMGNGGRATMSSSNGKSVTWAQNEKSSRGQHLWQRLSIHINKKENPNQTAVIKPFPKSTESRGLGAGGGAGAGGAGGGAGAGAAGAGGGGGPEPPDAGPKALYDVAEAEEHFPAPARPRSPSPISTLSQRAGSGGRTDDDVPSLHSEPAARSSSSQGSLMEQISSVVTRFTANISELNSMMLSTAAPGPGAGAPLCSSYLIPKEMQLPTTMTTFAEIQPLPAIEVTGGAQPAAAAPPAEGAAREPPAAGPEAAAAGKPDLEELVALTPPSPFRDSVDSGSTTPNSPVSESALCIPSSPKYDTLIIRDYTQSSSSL

Structure (SMILES)	inhibition at 10 µM	also measured
O=C(O)CCC(=O)NCc1cccc(-c2ccc3ncnc(NCC(=O)O)c3c2)c1 [Example 330, 4-(3-(4-(carboxymethylamino)quinazolin-6-yl)benzylamino)-4-oxobutyric acid]	47%	
O=S(=O)(c1c(F)c(F)c(F)c(F)c1F)N(Cc1cc(-c2ccc3ncnc(NC4CC4)c3c2)ccn1)C1CC1 [Example 848, N-cyclopropyl-N-((4-(4-(cyclopropylamino)quinazolin-6-yl)pyridin-2-yl)methyl)-2,3,4,5,6-pentafluorobenzole sulfonamide]		% Inhibition of mGluR5 Receptor (pig) [^3H]-MPEP Bond at 10 μM: 53%
O=C1CCCN1Cc1cccc(-c2ccc3ncnc(NC4CC4)c3c2)c1 [Example 217, 1-[3-(4-cyclopropylamino-quinazolin-6-yl)-benzyl]-pyrrolidine-2-one; hydrochloride]		IC50: 510 nM
CCCN(Cc1cccc(-c2ccc3ncnc(Nc4ccccc4)c3c2)c1)C(=O)c1ccsc1 [Example 108, thiophene-3-carboxylic acid [3-(4-phenylamino-quinazolin-6-yl)-benzyl]-propyl-amide]	31%	
CC1CCC(=O)N1Cc1cccc(-c2ccc3ncnc(NC4CC4)c3c2)c1 (stereo not drawn) [Example 885, 1-(3-(4-(cyclopropylamino)quinazolin-6-yl)benzyl)-5-methylpyrrolidine-2-one]		IC50: 400 nM
N#CCNCc1cccc(-c2ccc3ncnc(NC4CC4)c3c2)c1 [Example 320, 2-(3-(4-(cyclopropylamino)quinazolin-6-yl)benzylamino)acetonitrile]	72%	
CCCC(=O)N(Cc1cccc(-c2ccc3ncnc(NC4CC4)c3c2)c1)C1CC1 [Example 168, N-cyclopropyl-N-[3-(4-cyclopropylamino-quinazolin-6-yl)-benzyl]-butyramide]	90%	
N#CCC(=O)N(Cc1cc(-c2ccc3ncnc(NC4CC4)c3c2)ccc1F)C1CC1 [Example 277, 2-cyano-N-cyclopropyl-N-(5-(4-(cyclopropylamino)quinazolin-6-yl)-2-fluorobenzyl)acetamide]		IC50: 40 nM
COc1ccc(C(=O)N(Cc2cccc(-c3ccc4ncnc(N5CCCC5)c4c3)c2)C2CC2)cc1 [Example 142, N-cyclopropyl-4-methoxy-N-[3-(4-pyrrolidin-1-yl-quinazolin-6-yl)-benzyl]-benzamide]	51%	
c1cc(CNC2CC2)cc(-c2ccc3ncnc(NC4CC4)c3c2)c1 [Example 294, N-cyclopropyl-6-(3-((cyclopropylamino)methyl)-phenyl)quinazoline-4-amine]		IC50: 8670 nM
Cc1cc2ncnc(NC3CC3)c2cc1-c1cccc(CN(C2CC2)S(=O)(=O)c2ccc(Cl)cc2Cl)c1 [Example 667, 2,4-dichloro-N-cyclopropyl-N-(3-(4-(cyclopropylamino)-7-methylquinazolin-6-yl)benzyl)benzole sulfonamide]		% Inhibition of mGluR5 Receptor (pig) [^3H]-MPEP Bond at 10 μM: 40%
CC(=O)N(Cc1cccc(-c2ccc3ncnc(NC4CC4)c3c2)c1)c1ccccc1 [Example 207, N-(3-(4-(cyclopropylamino)quinazolin-6-yl)benzyl)-N-phenylacetamide hydrochloride]		IC50: 7170 nM
CCCN(Cc1cccc(-c2ccc3ncnc(Nc4ccccc4)c3c2)c1)C(=O)c1cccnc1 [Example 117, N-[3-(4-phenylamino-quinazolin-6-yl)-benzyl]-N-propyl-nicotinamide]	68%	
O=C(COc1ccccc1)N(Cc1cccc(-c2ccc3ncnc(NC4CC4)c3c2)c1)C1CC1 [Example 164, N-cyclopropyl-N-[3-(4-cyclopropylamino-quinazolin-6-yl)-benzyl]-2-phenoxy-acetamide]	86%	
O=C1CCC(=O)N1Cc1cccc(-c2cc(Cl)c3ncnc(NC4CC4)c3c2)c1 [Example 881, 1-(3-(8-chloro-4-(cyclopropylamino)quinazolin-6-yl)benzyl)pyrrolidine-2,5-dione]		IC50: 20 nM
O=S(=O)(c1ccccc1)N(Cc1cc(-c2ccc3ncnc(NC4CC4)c3c2)ccn1)C1CC1 [Example 731, N-cyclopropyl-N-((4-(4-(cyclopropylamino)quinazolin-6-yl)pyridin-2-yl)methyl)benzole sulfonamide]		% Inhibition of mGluR5 Receptor (pig) [^3H]-MPEP Bond at 10 μM: 86%

The next lines start with results.

inhibition at 10 µM	Structure (SMILES)	also measured
37%	O=C(C1CCCCC1)N(Cc1cc(-c2ccc3ncnc(NC4CC4)c3c2)ccc1Cl)C1CC1 [Example 741, N-(2-chloro-5-(4-(cyclopropylamino)quinazolin-6-yl)benzyl)-N-cyclopropylcyclohexane carboxamide]	
89%	Cc1cc2ncnc(NC3CC3)c2cc1-c1cccc(CN(C(=O)Cc2ccccc2)C2CC2)c1 [Example 661, N-cyclopropyl-N-(3-(4-(cyclopropylamino)-7-methylquinazolin-6-yl)benzyl)-2-phenylacetamide]	
47%	CN(C)CC(=O)N(Cc1cc(-c2ccc3ncnc(NC4CC4)c3c2)ccn1)C1CC1 [Example 739, N-cyclopropyl-N-((4-(4-(cyclopropylamino)quinazolin-6-yl)pyridin-2-yl)methyl)-2-(dimethylamino)acetamide]	
89%	Cc1cc2ncnc(NC3CC3)c2cc1-c1cccc(CN(C(=O)c2cccs2)C2CC2)c1 [Example 698, N-cyclopropyl-N-(3-(4-(cyclopropylamino)-7-methylquinazolin-6-yl)benzyl)thiophene-2-carboxamide]	
65%	O=C(c1ccccc1C(F)(F)F)N(Cc1cc(-c2ccc3ncnc(NC4CC4)c3c2)ccn1)C1CC1 [Example 749, N-cyclopropyl-N-((4-(4-(cyclopropylamino)quinazolin-6-yl)pyridin-2-yl)methyl)-2-(trifluoromethyl)benzamide]	
71%	COc1ccc(C(=O)N(Cc2cc(-c3ccc4ncnc(NC(C)(C)C)c4c3)ccc2F)C2CC2)cc1OC [Example 843, N-(5-(4-(tert-butylamino)quinazolin-6-yl)-2-fluorobenzyl)-N-cyclopropyl-3,4-dimethoxybenzamide]	
72%	O=C(c1ccc(C(F)(F)F)cc1F)N(Cc1cc(-c2ccc3ncnc(NC4CC4)c3c2)ccn1)C1CC1 [Example 735, N-cyclopropyl-N-((4-(4-(cyclopropylamino)quinazolin-6-yl)pyridin-2-yl)methyl)-2-fluoro-4-(trifluoromethyl)benzamide]	
93%	O=C(c1cccc(F)c1)N(Cc1cccc(-c2cc(F)c3ncnc(NC4CC4)c3c2)c1)C1CC1 [Example 727, N-cyclopropyl-N-(3-(4-(cyclopropylamino)-8-fluoroquinazolin-6-yl)benzyl)-3-fluorobenzamide]	
86%	CC(C)(C)Nc1ncnc2ccc(-c3ccc(F)c(CN(C(=O)c4cccc(F)c4)C4CC4)c3)cc12 [Example 849, N-(5-(4-(tert-butylamino)quinazolin-6-yl)-2-fluorobenzyl)-N-cyclopropyl-3-fluorobenzamide]	
52%	Cc1cc2ncnc(NC3CC3)c2cc1-c1cccc(CN(C(=O)c2ccno2)C2CC2)c1 [Example 745, N-cyclopropyl-N-(3-(4-(cyclopropylamino)-7-methylquinazolin-6-yl)benzyl)isoxazole-5-carboxamide]	
61%	Cc1nc(NC2CC2)c2cc(-c3ccc(F)c(CN(C(=O)c4ccc(C(F)(F)F)cc4F)C4CC4)c3)ccc2n1 [Example 532, N-cyclopropyl-N-(5-(4-(cyclopropylamino)-2-methylquinazolin-6-yl)-2-fluorobenzyl)-2-fluoro-4-(trifluoromethyl)benzamide]	
